Reference: PubChem BioAssay AID588644 (The Scripps Research Institute Molecular Screening Center, 2011)
The source made the active and inactive calls.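 Rule for the calls: active = rise or fall in EGR1 growth-response protein of at least 30% versus solvent-only treated cells; inactive = EGR1 protein change under 30% either way.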

molecular target: Early growth response protein 1 (Homo sapiens) (UniProt P18146); experiment: lowering of EGR1 protein in HCT116 – cell-based, HCT116 colorectal carcinoma, chemiluminescent western blot, counter-screen for KLF5 inhibitor project, late-stage follow-up (AID 588644); conditions: HCT116 EGR1 protein level, 24 h, at 10 µM, stronger effect = higher value

Compound	inhibition
CN(C(=O)CNC(=O)/C=C/c1cccc(Cl)c1)C1CCS(=O)(=O)C1 (stereo not drawn)	18.6% (inactive)
CN(C(=O)COC(=O)/C=C/c1cccc([N+](=O)[O-])c1)C1CCS(=O)(=O)C1 (stereo not drawn)	28.4% (inactive)
CN(C(=O)CNC(=O)/C=C/c1cccc(Cl)c1)C1CCS(=O)(=O)CC1	-3.53% (inactive)
